This note sets out measurements from US11390625B2, “Aryl-phosphorus-oxygen compound as EGFR kinase inhibitor” (Chia Tai Tianqing Pharmaceutical Group Co., Ltd., priority 2017, dated 2022).

Each structure is given as a SMILES string.

As a reminder, the half-life is the time needed for the level to fall by half in the phase considered. The AUC(0-t) is the area under the concentration-time curve up to a stated or last time point.

The nature of data set [1]: Plasma, tumor and lung exposure in mice of the Ba/F3 CDX efficacy experiment. In kind it is in vivo. The following applies: mouse, 15.0 mg/kg/day oral; for concentration at 2 h / Lung, 2 h / Tumor, 2 h: 2 h after administration. The method, then: On Day 14 after administration to the groups for the efficacy experiment, the plasma was collected from the mice by submandibular blood collection before last administration and 2 hours after last administration, and the plasma samples were collected from the mice at 1 h, 4 h, 8 h and 24 h after administration. About 100 ul of blood was collected each time, placed in an anticoagulation tube, and centrifuged at 8000 rpm for 7 min, to collect plasma, which was stored at −80° C.

In data set [2] the test system is Ba/F3 (EGFR Δ19del/T790M/C797S) cells. In words: Anti-proliferation experiment on cells (2), Ba/F3 (EGFR Δ19del/T790M/C797S). The class given is cell-based. As to conditions: Ba/F3 EGFR, 72 h; Ba/F3 cells, 3 days; read-out: anti-proliferation effect on cells Ba/F3(Δ19del/T790M/C797S) IC50. The method, then: The compounds ware transferred to a 384-well plate, with 125 nL of compound per well. […] After 3 days, 25 μL of detection reagent was added. The plate was incubated at room temperature for 10 minutes and then read with Envision.

The target of a further data set is EGFR (C797S/T790M/L858R) (Homo sapiens (Human), UniProt P00533, C797S/L858R/T790M). In words: Enzyme activity experiment (2): EGFR (C797S/T790M/L858R) enzyme inhibition. The class given is biochemical. The method, then:
(§1) 1. Gradient Dilution of the Compound:
(§2) The dilution and transfer of the compounds were completed by Echo by Labcyte Inc., with a three-fold concentration gradient, a total of 11 dose points, and 100 nL of the compounds per well. The maximum concentration of the test compounds in the kinase reaction solutions was 1000 nM. The maximum concentration of the reference compound (Crizotinib & AP26113) in the kinase reaction solution was 1000 nM. The maximum concentration of the reference compound (AZD9291) in the kinase reaction solution was 300 nM.
(§3) The plate was centrifuged at a speed of 1000 rpm for 60 seconds. The test plate was incubated at 23° C. for 15 minutes.
(§4) (3) The test plate was film sealed and incubated at 23° C. for 90 minutes.
(§5) (4) The test plate was added with 2× detection solution (4 nM TK antibody and 125 nM XL665), 10 μL per well, and centrifuged at a speed of 1000 rpm for 60 seconds, and film sealed, which was incubated at 23° C. for 60 minutes.
(§6) (5) The plate was read on the Multi-Mark Detector Envision.

The target of a further data set is EGFR (WT) (Homo sapiens (Human), UniProt P00533). In words: Enzyme activity experiment (2): EGFR WT enzyme inhibition. In kind it is biochemical. The method, then: as §1, §2, §3, §4, §5, §6
Data set [3] has as its target EGFR (Δ19del/T790M/C797S) (Homo sapiens, UniProt P00533, C797S/T790M, form not given). In words: Enzyme activity experiment (1): EGFR (Δ19del/T790M/C797S) enzyme inhibition. The class given is biochemical. As to conditions: read-out: EGFR (Δ19del/T790M/C797S) IC50. The method, then: 1) 10 μL of the compounds to be tested and reference compounds diluted to 10 mM were taken into an Echo LDV plate, which were diluted according to the compound profile with Echo.
1) 1×enzyme reaction buffer was prepared: 1× enzyme buffer, 5 mM MgCl2, 1 mM DTT (dithiothreitol), water.
2) A mixed solution of 10 nM enzyme (final concentration of 5 nM) and 2 μM substrate (final concentration of 1 μM) and a solution containing the substrate alone were prepared with the diluted enzyme reaction buffer.
3) 5 μL of the substrate was added into A1-H1, J24-P24 (the number of the well position), and 5 μL of the mixture of the enzyme and substrate was added into the remaining wells.
4) Centrifugation was performed at 1000 rpm at 23° C. for 30 s.
5) Incubation was performed at 23° C. for 15 min.
7) Centrifugation was performed at 1000 rpm at 23° C. for 30 s.
8) Incubation was performed at 23° C. for 60 min.
9) 10 μL of 250 nM TK Antibody-Crypate (a final concentration of 125 nM) and 1×D2 (a final concentration ½ time) prepared with Detection buffer were added.
10) Centrifugation was performed at 1000 rpm at 23° C. for 30 s.
11) Incubation was performed at 23° C. for 60 min.
12) The data was read with Envision, and the ratio was calculated to obtain the IC50 of the compound for inhibiting the enzyme activity.

Chain of EGFR (WT) (P00533 25-1210): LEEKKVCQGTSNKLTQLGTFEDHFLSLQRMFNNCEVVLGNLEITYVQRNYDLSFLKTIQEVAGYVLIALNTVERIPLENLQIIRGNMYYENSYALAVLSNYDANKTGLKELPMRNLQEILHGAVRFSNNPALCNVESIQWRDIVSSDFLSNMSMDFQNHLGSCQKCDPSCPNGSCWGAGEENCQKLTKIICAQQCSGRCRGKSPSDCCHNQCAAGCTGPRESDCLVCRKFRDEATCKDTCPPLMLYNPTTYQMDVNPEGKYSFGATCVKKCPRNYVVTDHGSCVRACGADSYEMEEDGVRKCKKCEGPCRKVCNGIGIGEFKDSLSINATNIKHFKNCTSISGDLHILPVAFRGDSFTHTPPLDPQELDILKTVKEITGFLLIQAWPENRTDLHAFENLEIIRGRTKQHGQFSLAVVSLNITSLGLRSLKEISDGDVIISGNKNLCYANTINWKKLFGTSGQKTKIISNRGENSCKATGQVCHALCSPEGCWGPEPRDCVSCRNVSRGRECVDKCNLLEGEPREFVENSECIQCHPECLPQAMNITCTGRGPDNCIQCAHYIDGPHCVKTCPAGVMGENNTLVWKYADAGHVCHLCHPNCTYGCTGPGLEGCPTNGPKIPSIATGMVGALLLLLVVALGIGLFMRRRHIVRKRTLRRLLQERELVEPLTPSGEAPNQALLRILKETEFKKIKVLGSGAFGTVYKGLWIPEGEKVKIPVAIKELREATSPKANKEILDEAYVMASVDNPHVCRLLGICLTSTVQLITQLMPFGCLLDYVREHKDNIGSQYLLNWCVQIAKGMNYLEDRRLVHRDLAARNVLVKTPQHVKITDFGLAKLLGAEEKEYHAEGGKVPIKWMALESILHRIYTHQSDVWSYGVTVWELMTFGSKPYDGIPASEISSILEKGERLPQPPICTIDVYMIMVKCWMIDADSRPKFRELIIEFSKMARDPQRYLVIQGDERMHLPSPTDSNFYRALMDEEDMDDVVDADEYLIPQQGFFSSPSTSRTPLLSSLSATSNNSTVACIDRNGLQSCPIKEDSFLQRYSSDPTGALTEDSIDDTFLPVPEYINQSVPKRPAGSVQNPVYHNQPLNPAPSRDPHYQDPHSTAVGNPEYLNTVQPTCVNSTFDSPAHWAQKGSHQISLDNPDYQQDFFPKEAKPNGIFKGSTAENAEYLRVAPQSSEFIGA
Chain of EGFR (Δ19del/T790M/C797S) (P00533 25-1210 T790M/C797S limits assumed, form open): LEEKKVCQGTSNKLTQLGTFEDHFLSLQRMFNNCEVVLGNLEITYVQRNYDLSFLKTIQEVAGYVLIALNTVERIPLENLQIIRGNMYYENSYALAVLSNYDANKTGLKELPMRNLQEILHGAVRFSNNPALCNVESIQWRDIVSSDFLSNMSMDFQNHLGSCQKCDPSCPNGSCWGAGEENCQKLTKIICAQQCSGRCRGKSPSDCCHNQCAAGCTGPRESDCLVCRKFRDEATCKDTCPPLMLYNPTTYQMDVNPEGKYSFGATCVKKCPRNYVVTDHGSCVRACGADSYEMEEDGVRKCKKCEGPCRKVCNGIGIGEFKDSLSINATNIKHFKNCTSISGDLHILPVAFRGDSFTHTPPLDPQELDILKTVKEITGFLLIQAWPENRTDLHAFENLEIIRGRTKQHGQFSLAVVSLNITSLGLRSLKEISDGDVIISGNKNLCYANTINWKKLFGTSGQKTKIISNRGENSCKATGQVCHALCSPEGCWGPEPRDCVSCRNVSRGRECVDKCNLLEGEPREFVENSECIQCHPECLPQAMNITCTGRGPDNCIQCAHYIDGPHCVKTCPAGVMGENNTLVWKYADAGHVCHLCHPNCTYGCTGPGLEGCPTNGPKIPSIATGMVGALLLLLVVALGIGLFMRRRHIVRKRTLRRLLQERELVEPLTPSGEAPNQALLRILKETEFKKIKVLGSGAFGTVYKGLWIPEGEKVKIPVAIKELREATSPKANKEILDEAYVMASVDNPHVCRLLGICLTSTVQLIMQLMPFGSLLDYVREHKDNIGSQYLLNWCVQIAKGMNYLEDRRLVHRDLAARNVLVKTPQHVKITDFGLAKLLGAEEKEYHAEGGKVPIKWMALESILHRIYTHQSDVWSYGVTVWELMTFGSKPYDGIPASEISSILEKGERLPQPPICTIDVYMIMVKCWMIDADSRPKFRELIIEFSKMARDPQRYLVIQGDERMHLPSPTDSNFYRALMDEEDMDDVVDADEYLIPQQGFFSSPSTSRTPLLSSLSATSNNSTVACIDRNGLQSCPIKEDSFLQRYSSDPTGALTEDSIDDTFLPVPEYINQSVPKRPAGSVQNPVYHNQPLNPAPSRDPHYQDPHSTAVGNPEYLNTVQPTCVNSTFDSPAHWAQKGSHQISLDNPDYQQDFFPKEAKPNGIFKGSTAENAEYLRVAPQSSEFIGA
Chain of EGFR (C797S/T790M/L858R) (P00533 25-1210 T790M/C797S/L858R): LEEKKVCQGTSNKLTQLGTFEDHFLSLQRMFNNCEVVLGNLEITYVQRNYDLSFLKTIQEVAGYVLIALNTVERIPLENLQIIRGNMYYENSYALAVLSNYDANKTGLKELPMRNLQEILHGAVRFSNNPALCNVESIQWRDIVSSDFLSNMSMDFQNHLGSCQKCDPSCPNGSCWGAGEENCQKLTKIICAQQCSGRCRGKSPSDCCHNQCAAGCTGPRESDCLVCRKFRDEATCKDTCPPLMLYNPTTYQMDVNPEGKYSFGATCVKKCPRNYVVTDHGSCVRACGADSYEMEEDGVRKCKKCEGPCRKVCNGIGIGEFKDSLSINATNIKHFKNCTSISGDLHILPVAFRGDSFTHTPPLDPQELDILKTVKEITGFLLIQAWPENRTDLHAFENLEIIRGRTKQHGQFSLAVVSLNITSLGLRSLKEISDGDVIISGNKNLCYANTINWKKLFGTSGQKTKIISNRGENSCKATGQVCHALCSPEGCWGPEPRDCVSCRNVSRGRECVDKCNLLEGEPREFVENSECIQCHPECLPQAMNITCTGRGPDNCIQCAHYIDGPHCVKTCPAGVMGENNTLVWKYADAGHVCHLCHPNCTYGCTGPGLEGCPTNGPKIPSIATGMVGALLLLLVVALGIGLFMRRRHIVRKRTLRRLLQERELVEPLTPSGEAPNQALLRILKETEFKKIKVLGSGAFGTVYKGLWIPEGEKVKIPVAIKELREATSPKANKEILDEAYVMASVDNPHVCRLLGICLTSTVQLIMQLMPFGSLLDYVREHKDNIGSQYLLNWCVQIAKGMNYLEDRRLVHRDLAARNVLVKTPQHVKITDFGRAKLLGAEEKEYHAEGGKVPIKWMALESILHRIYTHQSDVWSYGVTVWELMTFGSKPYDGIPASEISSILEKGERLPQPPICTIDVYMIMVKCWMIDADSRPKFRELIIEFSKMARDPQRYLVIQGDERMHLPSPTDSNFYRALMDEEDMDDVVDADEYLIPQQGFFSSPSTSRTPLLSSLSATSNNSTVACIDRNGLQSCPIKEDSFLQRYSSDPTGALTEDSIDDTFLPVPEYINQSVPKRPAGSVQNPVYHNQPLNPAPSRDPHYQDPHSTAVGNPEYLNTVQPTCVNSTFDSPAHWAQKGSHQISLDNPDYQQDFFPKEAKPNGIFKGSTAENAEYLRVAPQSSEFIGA

Consider `COc1cc(N2CCC(N3CCN(C)CC3)CC2)c(C)cc1Nc1ncc(Br)c(Nc2ccc3nccnc3c2P(C)(C)=O)n1` [Compound 34], for which, in data set [1] (BALB/c nude, plasma), the half-life is 10 h and the concentration at 2 h turned out to be 3.55 µM. Moreover, in data set [1], the “Lung, 2 h” value came out at 32533 nmol/kg and the “Tumor, 2 h” value worked out at 16667 nmol/kg. In addition, the IC50 in data set [2] turned out to be 22 nM.
Turning to `CCc1cc(Nc2ncc(Br)c(Nc3ccc4nccnc4c3P(C)(C)=O)n2)c(OC)cc1N1CCC(N2CCN(C)CC2)CC1` [Compound 41], in data set [1] (BALB/c nude, plasma), the AUC(0-t) is 122 µM·h, the half-life is 20.5 h and the concentration at 2 h came to 6.99 µM. In data set [1], the “Lung, 2 h” value is listed as 29567 nmol/kg and the “Tumor, 2 h” value is 18567 nmol/kg. The same compound registered an IC50 against EGFR (C797S/T790M/L858R) of 0.26 nM. Further, at EGFR (WT), the IC50 turned out to be 5.12 nM. Moreover, the IC50 in data set [3] came out at 0.212 nM. Moreover, the IC50 in data set [2] is 9 nM.
